Experiments:
Format in all cases: cell-based
Settings in all cases: 16 h treatment, EGFR degradation by HTRF
EGFR [1] = biological target: T1, EGFR (Homo sapiens, UniProt P00533, L858R/T790M); assay: Cell Degradation 1: EGFR degradation in H1975 cells, HTRF assay
T1 construct: endogenous in cells; host or cells: H1975
How it was run: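 EGFR levels were read by HTRF (337 nm excitation, 665 and 620 nm emission) in lysates of H1975 cells exposed to compound for 16 h, with antibodies incubated overnight at room temperature. Fitting percent inhibition versus concentration to a Hill equation gave DC50.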

EGFR [2] = biological target: T2, EGFR (Homo sapiens, UniProt P00533, DEL746-750); assay: Cell Degradation 2: EGFR degradation in HCC827 cells, HTRF assay
T2 construct: endogenous in cells; host or cells: HCC827
T2 sequence (P00533 with tags, fused parts or gaps DEL746-750): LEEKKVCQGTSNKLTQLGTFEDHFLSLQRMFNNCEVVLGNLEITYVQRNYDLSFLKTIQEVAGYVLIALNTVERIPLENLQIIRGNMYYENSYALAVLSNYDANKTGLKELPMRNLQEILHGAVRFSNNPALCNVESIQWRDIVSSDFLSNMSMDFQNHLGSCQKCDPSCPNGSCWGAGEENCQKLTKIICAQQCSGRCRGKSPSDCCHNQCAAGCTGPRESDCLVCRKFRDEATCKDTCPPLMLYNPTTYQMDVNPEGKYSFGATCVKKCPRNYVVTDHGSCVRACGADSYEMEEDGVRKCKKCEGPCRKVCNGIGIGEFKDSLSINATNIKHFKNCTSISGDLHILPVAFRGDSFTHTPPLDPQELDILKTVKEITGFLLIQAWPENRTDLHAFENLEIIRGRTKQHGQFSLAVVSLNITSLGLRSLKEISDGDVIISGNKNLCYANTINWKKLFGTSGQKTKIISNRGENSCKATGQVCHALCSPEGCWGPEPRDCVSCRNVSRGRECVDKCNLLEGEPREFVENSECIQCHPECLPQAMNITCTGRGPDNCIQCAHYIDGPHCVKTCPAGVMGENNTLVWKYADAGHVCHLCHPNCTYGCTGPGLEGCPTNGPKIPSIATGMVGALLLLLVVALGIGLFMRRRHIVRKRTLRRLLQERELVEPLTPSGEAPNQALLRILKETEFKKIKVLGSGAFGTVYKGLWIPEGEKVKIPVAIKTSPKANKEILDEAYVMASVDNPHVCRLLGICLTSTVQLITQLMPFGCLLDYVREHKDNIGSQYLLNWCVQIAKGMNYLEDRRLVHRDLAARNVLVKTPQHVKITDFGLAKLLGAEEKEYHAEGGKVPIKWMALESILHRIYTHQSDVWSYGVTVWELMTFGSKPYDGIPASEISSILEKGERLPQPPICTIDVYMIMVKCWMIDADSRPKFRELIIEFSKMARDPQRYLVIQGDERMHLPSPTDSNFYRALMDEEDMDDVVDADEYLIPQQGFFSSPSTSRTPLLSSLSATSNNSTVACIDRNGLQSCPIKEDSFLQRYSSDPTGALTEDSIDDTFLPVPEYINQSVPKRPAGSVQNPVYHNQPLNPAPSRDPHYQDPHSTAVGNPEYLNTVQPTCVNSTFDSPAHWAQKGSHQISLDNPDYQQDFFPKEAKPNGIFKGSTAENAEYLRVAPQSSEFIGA
T2 sequence (Q96SW2 whole entry partner): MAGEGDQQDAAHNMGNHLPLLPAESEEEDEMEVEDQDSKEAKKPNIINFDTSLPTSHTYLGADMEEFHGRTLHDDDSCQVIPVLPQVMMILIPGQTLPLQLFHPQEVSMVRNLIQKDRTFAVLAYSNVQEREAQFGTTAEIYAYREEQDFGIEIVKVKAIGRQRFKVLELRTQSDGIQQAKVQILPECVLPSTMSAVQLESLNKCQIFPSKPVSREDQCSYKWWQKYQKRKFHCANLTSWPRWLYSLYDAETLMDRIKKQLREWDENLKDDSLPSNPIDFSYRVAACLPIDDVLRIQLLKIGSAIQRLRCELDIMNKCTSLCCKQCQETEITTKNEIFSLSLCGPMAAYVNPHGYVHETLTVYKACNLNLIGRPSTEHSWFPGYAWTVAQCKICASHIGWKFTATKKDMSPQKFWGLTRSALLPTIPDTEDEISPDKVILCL
How it was run: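 DC50 values derive from four-parameter fits of percent inhibition versus concentration. The HTRF read-out (665/620 nm ratio, 337 nm excitation) followed 16 h compound exposure of HCC827 cells, 1 h lysis and overnight room-temperature incubation with the HTRF antibodies.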

EGFR DTC = assay: Cell Degradation 3: EGFR degradation in BaF3 cells (DTC), HTRF assay
How it was run: (§1)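 BaF3 cells expressing EGFR (LTC triple mutant C797S/L858R/T790M or DTC) exposed to compounds for 16 h, 8 doses from 4-fold dilution, 0.2% DMSO. Residual EGFR quantified by HTRF in lysates (triple mutant lysate diluted 1:1); DC50 from four-parameter logistic fit.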

EGFR LTC = biological target: T3, EGFR LTC (Homo sapiens, UniProt P00533, C797S/L858R/T790M); assay: Cell Degradation 3: EGFR degradation in BaF3 cells (LTC), HTRF assay
T3 construct: expressed in transfected cells; host or cells: BaF3
T3 sequence (P00533 25-1210 T790M/C797S/L858R): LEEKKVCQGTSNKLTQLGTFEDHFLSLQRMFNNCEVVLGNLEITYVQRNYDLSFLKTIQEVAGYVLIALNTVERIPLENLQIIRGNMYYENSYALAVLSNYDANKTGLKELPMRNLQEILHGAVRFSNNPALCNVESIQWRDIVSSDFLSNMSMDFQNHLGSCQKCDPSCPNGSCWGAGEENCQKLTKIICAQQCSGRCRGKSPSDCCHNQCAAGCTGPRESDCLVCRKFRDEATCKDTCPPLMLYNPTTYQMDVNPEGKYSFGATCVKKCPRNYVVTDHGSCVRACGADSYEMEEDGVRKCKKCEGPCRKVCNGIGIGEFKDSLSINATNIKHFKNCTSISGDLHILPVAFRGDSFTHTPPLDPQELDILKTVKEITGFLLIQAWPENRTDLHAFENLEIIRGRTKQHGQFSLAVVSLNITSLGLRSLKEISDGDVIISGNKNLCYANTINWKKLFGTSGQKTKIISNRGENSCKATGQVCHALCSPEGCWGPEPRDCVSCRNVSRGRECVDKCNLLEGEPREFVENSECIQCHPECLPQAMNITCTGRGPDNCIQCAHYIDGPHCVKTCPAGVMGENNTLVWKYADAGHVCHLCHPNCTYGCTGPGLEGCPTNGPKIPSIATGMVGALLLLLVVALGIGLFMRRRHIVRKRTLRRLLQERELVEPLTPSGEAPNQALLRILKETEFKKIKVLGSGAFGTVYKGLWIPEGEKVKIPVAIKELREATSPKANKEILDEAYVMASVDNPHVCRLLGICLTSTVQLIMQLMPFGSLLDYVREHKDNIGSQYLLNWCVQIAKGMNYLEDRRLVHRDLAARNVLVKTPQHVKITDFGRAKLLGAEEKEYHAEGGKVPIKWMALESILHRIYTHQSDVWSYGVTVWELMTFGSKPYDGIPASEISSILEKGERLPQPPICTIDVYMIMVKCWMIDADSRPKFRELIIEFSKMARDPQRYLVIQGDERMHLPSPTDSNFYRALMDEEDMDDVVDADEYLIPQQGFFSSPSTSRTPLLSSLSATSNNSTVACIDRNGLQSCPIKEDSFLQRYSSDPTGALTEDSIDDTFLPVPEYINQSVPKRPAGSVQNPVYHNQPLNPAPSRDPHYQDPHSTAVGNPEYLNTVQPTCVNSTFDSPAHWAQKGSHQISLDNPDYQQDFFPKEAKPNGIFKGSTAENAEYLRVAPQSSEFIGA
How it was run: as §1

T1 sequence (P00533 25-1210 T790M/L858R): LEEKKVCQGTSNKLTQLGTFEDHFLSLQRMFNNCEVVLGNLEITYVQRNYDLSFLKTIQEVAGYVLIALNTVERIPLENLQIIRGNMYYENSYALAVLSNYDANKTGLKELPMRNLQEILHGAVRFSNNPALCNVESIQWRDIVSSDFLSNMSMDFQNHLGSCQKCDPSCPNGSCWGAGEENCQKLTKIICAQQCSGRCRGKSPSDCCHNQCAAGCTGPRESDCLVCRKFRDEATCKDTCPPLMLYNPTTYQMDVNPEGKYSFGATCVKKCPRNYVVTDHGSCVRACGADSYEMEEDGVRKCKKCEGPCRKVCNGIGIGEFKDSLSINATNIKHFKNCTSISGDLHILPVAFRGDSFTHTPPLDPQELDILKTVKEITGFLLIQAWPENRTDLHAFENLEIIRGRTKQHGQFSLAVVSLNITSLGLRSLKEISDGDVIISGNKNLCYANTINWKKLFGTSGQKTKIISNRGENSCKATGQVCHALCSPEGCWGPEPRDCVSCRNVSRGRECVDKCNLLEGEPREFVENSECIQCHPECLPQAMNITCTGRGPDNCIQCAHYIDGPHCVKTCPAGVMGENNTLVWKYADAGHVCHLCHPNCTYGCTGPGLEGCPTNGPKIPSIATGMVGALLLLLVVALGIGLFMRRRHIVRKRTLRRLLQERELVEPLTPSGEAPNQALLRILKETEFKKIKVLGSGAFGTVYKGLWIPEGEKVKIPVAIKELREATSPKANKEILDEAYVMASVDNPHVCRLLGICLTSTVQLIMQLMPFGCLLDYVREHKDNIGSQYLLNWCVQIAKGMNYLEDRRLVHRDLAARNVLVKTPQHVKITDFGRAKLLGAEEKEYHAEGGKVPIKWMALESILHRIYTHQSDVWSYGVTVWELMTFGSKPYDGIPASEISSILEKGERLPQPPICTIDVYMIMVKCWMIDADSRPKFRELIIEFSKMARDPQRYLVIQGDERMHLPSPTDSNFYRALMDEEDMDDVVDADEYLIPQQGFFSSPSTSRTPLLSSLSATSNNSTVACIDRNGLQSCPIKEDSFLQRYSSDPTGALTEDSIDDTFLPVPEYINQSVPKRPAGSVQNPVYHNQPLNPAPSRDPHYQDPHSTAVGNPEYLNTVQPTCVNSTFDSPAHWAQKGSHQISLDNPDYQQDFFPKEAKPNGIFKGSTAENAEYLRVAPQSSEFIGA

Structure (SMILES): COc1cc(N2CCC(N3CCN(CCc4ccc(C5CCC(=O)NC5=O)cc4)CC3)CC2)c(C)cc1Nc1ncc(Br)c(Nc2cccc3c2N(S(C)(=O)=O)CC3)n1 (stereo not shown) [Example 39, 3-(4-(2-(4-(1-(4-((5-bromo-4-((1-(methylsulfonyl)indolin-7-yl)amino)pyrimidin-2-yl)amino)-5-methoxy-2-methylphenyl)piperidin-4-yl)piperazin-1-yl)ethyl)phenyl)piperidine-2,6-dione]
- DC50 (EGFR [1]): 12.1 nM
- DC50 (EGFR [2]): 13.6 nM
- DC50 (EGFR DTC): 33.7 nM
- DC50 (EGFR LTC): 157 nM

Structure (SMILES): CS(=O)(=O)N1CCc2cccc(Nc3nc(Nc4ccc(N5CCC(N6CCN(CCc7ccc(C8CCC(=O)NC8=O)cc7)CC6)CC5)c(F)c4)ncc3Cl)c21 (stereo not shown) [Example 45, 3-(4-(2-(4-(1-(4-((5-chloro-4-((1-(methylsulfonyl)indolin-7-yl)amino)pyrimidin-2-yl)amino)-2-fluorophenyl)piperidin-4-yl)piperazin-1-yl)ethyl)phenyl)piperidine-2,6-dione]
- DC50 (EGFR [1]): 2.3 nM
- DC50 (EGFR [2]): 6.7 nM
- DC50 (EGFR DTC): 9.9 nM
- DC50 (EGFR LTC): 17.3 nM

Structure (SMILES): CS(=O)(=O)N1CCc2cccc(Nc3nc(Nc4ccc(N5CCC(N6CCN(CCc7ccc(C8CCC(=O)NC8=O)c(F)c7)CC6)CC5)c5c4OCC5)ncc3Cl)c21 (stereo not shown) [Example 53, 3-(4-(2-(4-(1-(7-((5-chloro-4-((1-(methylsulfonyl)indolin-7-yl)amino)pyrimidin-2-yl)amino)-2,3-dihydrobenzofuran-4-yl)piperidin-4-yl)piperazin-1-yl)ethyl)-2-fluorophenyl)piperidine-2,6-dione]
- DC50 (EGFR [1]): 2.6 nM
- DC50 (EGFR [2]): 3.7 nM
- DC50 (EGFR DTC): 21.8 nM
- DC50 (EGFR LTC): 35.7 nM

Structure (SMILES): CS(=O)(=O)N1CCc2cccc(Nc3nc(Nc4ccc(N5CCC(N6CCN(CCC7CCN(c8ccc(C9CCC(=O)NC9=O)cc8)CC7)CC6)CC5)c5c4OCC5)ncc3Cl)c21 (stereo not shown) [Example 54, 3-(4-(4-(2-(4-(1-(7-((5-chloro-4-((1-(methylsulfonyl)indolin-7-yl)amino)pyrimidin-2-yl)amino)-2,3-dihydrobenzofuran-4-yl)piperidin-4-yl)piperazin-1-yl)ethyl)piperidin-1-yl)phenyl)piperidine-2,6-dione]
- DC50 (EGFR [1]): 8.9 nM
- DC50 (EGFR [2]): 8.9 nM
- DC50 (EGFR DTC): 120 nM
- DC50 (EGFR LTC): 443 nM

Structure (SMILES): COc1cc(N2CCN(CCC3CCN(c4ccc(C5CCC(=O)NC5=O)cc4)CC3)CC2)ccc1Nc1ncc(Cl)c(Nc2cccc3c2N(S(C)(=O)=O)CC3)n1 (stereo not shown) [Example 56, 3-(4-(4-(2-(4-(4-((5-chloro-4-((1-(methylsulfonyl)indolin-7-yl)amino)pyrimidin-2-yl)amino)-3-methoxyphenyl)piperazin-1-yl)ethyl)piperidin-1-yl)phenyl)piperidine-2,6-dione]
- DC50 (EGFR [1]): 13.5 nM
- DC50 (EGFR [2]): 5.8 nM
- DC50 (EGFR DTC): 23.6 nM
- DC50 (EGFR LTC): 233 nM

Structure (SMILES): CS(=O)(=O)N1CCc2cccc(Nc3nc(Nc4ccc(N5CCC(N6CCN(C(=O)[C@@H]7CCN(c8ccc9c(c8)C(=O)N(C8CCC(=O)NC8=O)C9=O)C7)CC6)CC5)c(F)c4)nc4[nH]ccc34)c21 (stereo partly drawn) [Example 62, 2-(2,6-dioxopiperidin-3-yl)-5-((R)-3-(4-(1-(2-fluoro-4-((4-((1-(methylsulfonyl)indolin-7-yl)amino)-7H-pyrrolo[2,3-d]pyrimidin-2-yl)amino)phenyl)piperidin-4-yl)piperazine-1-carbonyl)pyrrolidin-1-yl)isoindoline-1,3-dione]
- DC50 (EGFR [1]): 4.4 nM
- DC50 (EGFR [2]): 22.1 nM
- DC50 (EGFR DTC): 3 nM
- DC50 (EGFR LTC): 4.7 nM

Structure (SMILES): CS(=O)(=O)N1CCc2cccc(Nc3nc(Nc4ccc(N5CCC(N6CCN(CCC7CCN(c8cc(F)c(C9CCC(=O)NC9=O)c(F)c8)CC7)CC6)CC5)c(F)c4)nc4[nH]ccc34)c21 (stereo not shown) [Example 67, 3-(2,6-difluoro-4-(4-(2-(4-(1-(2-fluoro-4-((4-((1-(methylsulfonyl)indolin-7-yl)amino)-7H-pyrrolo[2,3-d]pyrimidin-2-yl)amino)phenyl)piperidin-4-yl)piperazin-1-yl)ethyl)piperidin-1-yl)phenyl)piperidine-2,6-dione]
- DC50 (EGFR [1]): 13.8 nM
- DC50 (EGFR [2]): 3.5 nM
- DC50 (EGFR DTC): 11.7 nM
- DC50 (EGFR LTC): 15.7 nM
